Test results reported in the CombiSolv-Exp solvation set (Vermeire and Green 2021).

Experiment: solvent given as SMILES

c1cc2ccc3cccc4ccc(c1)c2c34
Conditions | solvation free energy, 298 K [kcal/mol]
in Brc1ccccc1 | -13.2
in C1CCOC1 | -13.4
in C1COCCO1 | -13
in CC(=O)N(C)C | -13.3
in CC(C)(C)O | -11.2
in CC(C)=O | -12.7
in CC(C)CC(C)(C)C | -11.3
in CC(C)CC(C)O | -11.4
in CC(C)CCO | -11.4
in CC(C)CO | -11.2
in CC(C)O | -11.5
in CC(C)OC(C)C | -12
in CC(O)COC(C)(C)C | -12.3
in CCC(C)(C)O | -11.5
in CCC(C)=O | -13
in CCC(C)O | -11.3
in CCCC(=O)OC | -12.7
in CCCC(C)CO | -11.5
in CCCC(C)O | -11.5
in CCCCC(CC)CO | -11.7
in CCCCCC | -11.5
in CCCCCCC | -11.6
in CCCCCCCC | -11.7
in CCCCCCCCC=CCCCCCCCC(=O)OCC(COC(=O)CCCCCCCC=CCCCCCCCC)OC(=O)CCCCCCCC=CCCCCCCCC | -12.3
in CCCCCCCCCC | -11.8
in CCCCCCCCO | -11.9
in CCCCCCCO | -11.8
in CCCCCCO | -11.8
in CCCCCO | -11.7
in CCCCCOC(C)=O | -12.7
in CCCCCl | -12.8
in CCCCO | -11.6
in CCCCOC(C)=O | -12.7
in CCCCOCCCC | -12.1
in CCCCOCCO | -12.4
in CCCO | -11.5
in CCCOCCO | -12.4
in CCO | -11.6
in CCOC(C)=O | -12.7
in CCOCC | -12.4
in CCOCCO | -12.5
in CN(C)C=O | -13.2
in CNC=O | -11.8
in CO | -11.2
in COC(C)(C)C | -12.2
in COC(C)=O | -12.6
in COC(C)CCO | -12.3
in COCCO | -12.2
in Cc1ccc(C)cc1 | -12.8
in Cc1cccc(C)c1 | -12.8
in Cc1ccccc1C | -12.9
in ClC(Cl)(Cl)Cl | -12.7
in ClC(Cl)Cl | -13.2
in ClCCCl | -13.2
in Fc1ccccc1 | -12.9
in N#Cc1ccccc1 | -13.1
in O | -4.77
in O=C1CCCCC1 | -13.2

O=C(O)c1cccc(O)c1
Conditions | solvation free energy, 298 K [kcal/mol]
in O | -9.55

Clc1ccc2c(c1)Oc1ccccc1O2
Conditions | solvation free energy, 298 K [kcal/mol]
in O | -3.1

CCC(CC)CC
Conditions | solvation free energy, 298 K [kcal/mol]
in C=CCCCCCCCCCCCCCC | -4.07
in CC#N | -3.02
in O | 2.61

COc1ccc(N)cc1
Conditions | solvation free energy, 298 K [kcal/mol]
in CC(C)CCO | -8.92
in O | -7.54

COCCCNc1nc(NC(C)C)nc(SC)n1
Conditions | solvation free energy, 298 K [kcal/mol]
in O | -11.9

CCSCC
Conditions | solvation free energy, 298 K [kcal/mol]
in O | -1.46

CCCCCCCCC
Conditions | solvation free energy, 298 K [kcal/mol]
in Brc1ccccc1 | -5.75
in C1CCCCC1 | -6.23
in C1CCOC1 | -5.94
in C1COCCO1 | -5.1
in C=CCCCC | -6.1
in C=CCCCCCC | -5.95
in C=CCCCCCCCC | -5.89
in CC1COC(=O)O1 | -3.44
in CC#N | -4.12
in CC(=O)N(C)C | -4.53
in CC(=O)O | -4.5
in CC(=O)c1ccccc1 | -4.92
in CC(C)=O | -4.99
in CC(C)CC(C)(C)C | -5.95
in CC(C)CCCC(C)CCCC(C)CCCCC(C)CCCC(C)CCCC(C)C | -5.5
in CC(C)CCO | -5.21
in CC(C)O | -5.01
in CC(C)OC(C)C | -5.88
in CCBr | -5.96
in CCC#N | -4.68
in CCC(C)=O | -5.31
in CCCC#N | -5.01
in CCCC(=O)OCC | -5.57
in CCCC(C)=O | -5.41
in CCCCC | -6.12
in CCCCCC | -6.12
in CCCCCC(C)=O | -5.45
in CCCCCCC | -6.06
in CCCCCCCC | -5.98
in CCCCCCCCCC | -5.88
in CCCCCCCCCCCC | -5.79
in CCCCCCCCCCCCCCCC | -5.68
in CCCCCCCCO | -5.29
in CCCCCCOC(C)=O | -5.56
in CCCCO | -5.09
in CCCCOC(C)=O | -5.48
in CCCCOCCCC | -5.95
in CCCO | -4.94
in CCN(CC)CC | -6.06
in CCO | -4.84
in CCOC(=O)c1ccccc1C(=O)OCC | -4.53
in CCOC(C)=O | -5.32
in CCOCC | -5.97
in CCOCCOCCOCC | -5.25
in CCOc1ccccc1 | -5.42
in CN1CCCC1=O | -4.3
in CN(C)C=O | -4.3
in CN(C)P(=O)(N(C)C)N(C)C | -4.86
in CNC=O | -3.82
in CO | -4.4
in COC(C)=O | -5.07
in COCCO | -4.28
in COc1ccccc1 | -5.35
in CS(C)=O | -3.24
in Cc1ccc(C)cc1 | -5.93
in Cc1ccccc1 | -5.95
in Cc1ccccn1 | -5.45
in ClC(Cl)(Cl)Cl | -6.2
in ClC(Cl)Cl | -6.04
in ClCCCl | -5.32
in ClCCl | -5.72
in Clc1ccccc1 | -5.97
in FC(F)(F)C(F)(F)C(F)(F)C(F)(F)C(F)(F)C(F)(F)C(F)(F)C(F)(F)F | -3.92
in FC(F)(F)C(F)(F)C(F)(F)C(F)(F)C(F)(F)C(F)(F)F | -3.96
in Fc1ccccc1 | -5.76
in ICI | -3.73
in N#CCCCCC#N | -3.46
in N#Cc1ccccc1 | -4.97
in NC=O | -1.66
in NCCO | -2.24
in Nc1ccccc1 | -4.09
in O | 2.98
in O=C1CCCCC1 | -5.24
in O=C1CCCO1 | -3.71
in O=CN1CCOCC1 | -3.47
in OCCO | -2.03
in OCCOCCO | -2.76
in OCCOCCOCCO | -2.92
in OCCOCCOCCOCCO | -3.13
in OCc1ccccc1 | -4.36
in S=C=S | -6.17
in c1ccccc1 | -5.89
in c1ccncc1 | -5.13

CC(=O)CC(=O)C(F)(F)F
Conditions | solvation free energy, 298 K [kcal/mol]
in O | -4.91

C=CCl
Conditions | solvation free energy, 298 K [kcal/mol]
in O | -0.59

Nc1ccc(S(=O)(=O)NC(=O)c2ccccc2)cc1
Conditions | solvation free energy, 298 K [kcal/mol]
in O | -18.1

CN(CC(F)(F)F)c1ccccc1
Conditions | solvation free energy, 298 K [kcal/mol]
in O | -1.92

O=C(O)Cc1ccccc1
Conditions | solvation free energy, 298 K [kcal/mol]
in C=CCCCCCCC=C | -7.39
in CCOC(C)=O | -11.1
in O | -8.74

ClC1C(Cl)C(Cl)C(Cl)C(Cl)C1Cl (stereo not given)
Conditions | solvation free energy, 298 K [kcal/mol]
in CCCCCCCCC=CCCCCCCCC(=O)OCC(COC(=O)CCCCCCCC=CCCCCCCCC)OC(=O)CCCCCCCC=CCCCCCCCC | -11.2
in CCCCCCCCO | -10.9

Oc1cccc(O)c1
Conditions | solvation free energy, 298 K [kcal/mol]
in CCCCCC | -5.78
in CCCCCCC | -5.84
in CCCCCCCC | -5.85
in Cc1ccc(C)cc1 | -8.35
in Cc1cccc(C)c1 | -8.33
in Cc1ccccc1C | -8.33
in O | -11.4

CCc1ccc2ccccc2c1
Conditions | solvation free energy, 298 K [kcal/mol]
in O | -2.26

N#Cc1cccnc1
Conditions | solvation free energy, 298 K [kcal/mol]
in O | -6.75

O=[N+]([O-])c1cccc2ccccc12
Conditions | solvation free energy, 298 K [kcal/mol]
in CC(C)(C)O | -9.71
in CC(C)CC(C)(C)C | -9.18
in CC(C)CCO | -9.67
in CC(C)CO | -9.55
in CC(C)O | -9.78
in CC(C)OC(C)C | -10.4
in CCC(C)O | -9.94
in CCCC(C)O | -9.83
in CCCCC(CC)CO | -9.76
in CCCCCC | -9.35
in CCCCCCC | -9.37
in CCCCCCCC | -9.38
in CCCCCCCCCC | -9.39
in CCCCCCCCCCO | -9.94
in CCCCCCCCO | -9.98
in CCCCCCCO | -9.98
in CCCCCCO | -10
in CCCCCO | -9.99
in CCCCO | -9.97
in CCCCOCCCC | -10.2
in CCCO | -9.99
in CCO | -10.1
in CCOCC | -11
in COC(C)(C)C | -10.9
in O | -5.65

CC(=O)OC(C)OC(C)=O
Conditions | solvation free energy, 298 K [kcal/mol]
in O | -4.97

CCC(C)Cl (stereo not given)
Conditions | solvation free energy, 298 K [kcal/mol]
in C1CCOC1 | -4.34
in C1CCOCC1 | -4.24
in C1COCCO1 | -4.08
in C=CCCCCCCCCCCCCCC | -3.46
in CC(C)OC(C)C | -3.95
in CCCCCC | -3.84
in CCCCCl | -4.16
in COC(C)(C)C | -4.08

Clc1cccc(Cl)c1
Conditions | solvation free energy, 298 K [kcal/mol]
in CCCCCC | -6.18
in CCCCCCCCO | -5.63
in O | -1.05

CCCCCCCCC=CCCCCCCCC(=O)OCC
Conditions | solvation free energy, 298 K [kcal/mol]
in O | -8.25

c1cc2cccc3c4cccc5cccc(c(c1)c23)c54
Conditions | solvation free energy, 298 K [kcal/mol]
in CCCCCCCCC=CCCCCCCCC(=O)OCC(COC(=O)CCCCCCCC=CCCCCCCCC)OC(=O)CCCCCCCC=CCCCCCCCC | -16.9
in O | -7.83

CCCC(=O)OC
Conditions | solvation free energy, 298 K [kcal/mol]
in CCCO | -4.47
in CO | -4.84
in O | -2.84

C=C1CCC2(C(C)C)CC12 (stereo not given)
Conditions | solvation free energy, 298 K [kcal/mol]
in O | 0.49

CCCN(CCC)c1c([N+](=O)[O-])cc(C(F)(F)F)cc1[N+](=O)[O-]
Conditions | solvation free energy, 298 K [kcal/mol]
in O | -3.25

C=CC(C)=CCCC(=C)C
Conditions | solvation free energy, 298 K [kcal/mol]
in O | -0.55

CC=CC
Conditions | solvation free energy, 298 K [kcal/mol]
in CC(=O)N(C)C | -2.17
in CC(C)=O | -2.47
in CCOC(C)=O | -2.77
in CN(C)C=O | -2.11
in O | 1.34
in O=CN1CCOCC1 | -1.45

Clc1cc(Cl)c(Cl)cc1Cl
Conditions | solvation free energy, 298 K [kcal/mol]
in CCCCCCCCO | -7.67
in O | -1.34

COC(C)OC
Conditions | solvation free energy, 298 K [kcal/mol]
in O | -3.26

C=C(C)C1CC=C(C)CCC=C(C)CC1 (stereo not given)
Conditions | solvation free energy, 298 K [kcal/mol]
in O | -0.37

CCC(C)CCO (stereo not given)
Conditions | solvation free energy, 298 K [kcal/mol]
in CCCCCCCC | -4.82
in CCCCCCCCCC | -4.79

CC(C)(C)C(=O)CC(=O)C(C)(C)C
Conditions | solvation free energy, 298 K [kcal/mol]
in O | -4.43

CCC(C)O (stereo not given)
Conditions | solvation free energy, 298 K [kcal/mol]
in Brc1ccccc1 | -4.15
in C1COCCO1 | -5.54
in CC#N | -4.82
in CC(=O)N(C)C | -5.89
in CC(C)(C)O | -5.67
in CC(C)CC(C)(C)C | -3.42
in CC(C)O | -5.61
in CC(C)OC(C)C | -4.56
in CCC(C)=O | -5.18
in CCCCCC | -3.56
in CCCCCCC | -3.28
in CCCCCCCC | -3.26
in CCCCCCCCCCCCCCCC | -3.16
in CCCCCCCCCCO | -5.31
in CCCCCCCCO | -5.15
in CCCCCl | -4.17
in CCCCO | -5.5
in CCCCOC(C)=O | -4.9
in CCCOCCC | -4.4
in CCOC(=O)c1ccccc1C(=O)OCC | -4.35
in CN(C)C=O | -5.67
in CO | -6.02
in Cc1ccc(C)cc1 | -4.23
in Cc1cccc(C)c1 | -4.14
in Cc1ccccc1C | -4.19
in Clc1ccccc1 | -4.26

c1ccc2c(c1)OCCOCCOc1ccccc1OCCOCCO2
Conditions | solvation free energy, 298 K [kcal/mol]
in Cc1cccc(C)c1 | -21.7
in O | -18.2
